Legend:
tumors = details: prior art statement; cited from earlier work
[1] = test system: V79 Chinese hamster cells; test: V79 Chinese hamster cell survival assay after neutron irradiation; assay type: cell-based; details: 30 ppm, incubated twelve hours; neutron beam 2.8×10^11 n/cm^2 min; colony growth 5-6 days
Method: In vitro activity for neutron capture therapy is determined, e.g., by measuring the effect of low-level, thermal neutron irradiation on the V79 […] cell line in culture, and measuring resultant cytotoxicity, for example as described by Fairchild et al., Cancer Research 50. After the V79 cells are exposed to a neutron capture agent, they are irradiated with a neutron beam at a fluence rate of 2.8×10^11 n/cm^2 min. The cells are plated for undisturbed colony growth for 5-6 days, after which the remaining cell population is assessed.
The effect of neutron irradiation on V79 Chinese hamster cells incubated for twelve hours with ^157Gd-Tex is determined by a modification of the procedure originally described by Fairchild et al., Cancer Research 50 (1990). Three sets of sample plates of V79 cells are prepared. The first set (control cells) are suspended with 30 ppm ^157Gd-Tex in growth medium. The second set (washed cells) are suspended with 30 ppm ^157Gd-Tex in growth medium, then washed 3 times with PBS, trypsinized and harvested with gadolinium from reagents prior to suspension. The third set (ambient cells) are suspended in a 30 ppm ^157Gd containing medium.
All of the cells are irradiated within 1-2 hours following suspension in growth medium at a population density of 3.0×10^5 cells/ml. The neutron beam fluence rate at the center of the sample is 2.8×10^11 n/cm^2 min. […]

Glioma 261 tumor = test: Neutron capture activity in mice with intracerebral Glioma 261 tumor; assay type: in vivo; details: group A: Gd-Tex intravenous plus 1.2×10^12 neutrons/cm^2 (20 Gy), versus groups B-E; female C57BL/6 mice, up to 100 days
Method: In vivo activity for neutron capture therapy is determined, e.g., by post-mortem histological examination of brain tumor tissue by hematoxylin and eosin, as described in Saris et al., Cancer Research, vol. 52 (1992). The antitumor effects of neutron capture therapy are evaluated by implanting Glioma 261 tumor fragments into the brain of a mouse. Approximately 3 hours after administration of a neutron capture agent to be tested, the head is irradiated a with 1.2×10^12 neutron beam (resulting in a planned dose of […]). After 100 days the mouse is sacrificed and the tumorous and non-tumorous sections of the brain are stained with hematoxylin and eosin for histologic examination. The tumor bearing and control brain tissue sections are compared.
This procedure is a modification of a procedure initially described by Saris et al., Cancer Research, vol. 52 (1992). Glioma 261 tumor fragments are injected approximately 2 mm deep to the dura of the brain in 42 female C57BL/6 mice. The mice are randomized into 5 groups. The mice in group A receive […] mg/kg Gd-Tex and 1.2×10^12 neutrons/cm^2 resulting in 20 Gy. Group B mice receive 1.2×10^12 neutrons/cm^2 resulting in 20 Gy. The mice in group C receive […] mg/kg Gd-Tex and 10 Gy of photon irradiation. Group D receives […] mg/kg of Gd-Tex alone. Group E receives no treatment. […]

[2] = prior art statement; cited from earlier work

| Compound | selectivity for tumors / accumulation in tumor tissue (tumors) | other results |
| --- | --- | --- |
| O=C([O-])CN1CCN(CC(=O)[O-])CCN(CC(=O)O)CCN(CC(=O)[O-])CC1.[Gd+3] [Gd-DOTA, gadoteric acid] | not found to be tumor selective |  |
| O=C([O-])CN(CCN(CC(=O)[O-])CC(=O)O)CCN(CC(=O)[O-])CC(=O)O.[Gd+3] [Gd-DTPA, gadolinium diethylenetriamine-pentaacetic acid] | not found to be tumor selective |  |
| N[C@@H](Cc1ccc(B(O)O)cc1)C(=O)O [p-boron-phenylalanine] | limited selectivity for tumors | tumor/blood concentration ratios (tumors): poor tumor/blood concentration ratios |
| ^157Gd complex of 4,5-diethyl-10,23-dimethyl-9,24-bis(3-hydroxy propyl)-16,17-bis[2-[2-(2-methoxyethoxy)ethoxy]ethoxy]pentaazapentacyclo[20.2.1.1^3,6.1^8,11.0^14,19]heptacos a-1,3,5,7,9,11(27),12,14,16,18,20,22(25),23-tridecaene bis acetate [^157Gd-Tex] |  | survival of the control cells compared with the washed or ambient cells [1]: significantly higher |
| bis(acetato-O)[9,10-diethyl-20,21-bis[2-[2-(2-methoxyethoxy)ethoxy]ethoxy]-4,15-dimethyl-8,11-imino-3,6:16,13-dinitrilo-1,18-benzodiazacycloeicosine-5,14-dipropanolato-N1,N18,N23,N24,N25]gadolinium [Gd-Tex] |  | survival rate (Glioma 261 tumor): greater survival rate than any of the other groups |
| tetrakiscarborane carboxylate ester of 2,4-(a,b-dihydroxyethyl)deuteroporphyrin [BOPP] | poor selectivity for tumors | phototoxicity [2]: phototoxic |
